Results on 1 compound are retold here after ChEMBL document CHEMBL5550205, “Discovery of a NCOA4 Degrader for Labile Iron-Dependent Ferroptosis Inhibition” (J Med Chem, 2024).

Active and inactive are the calls of the source. No cut-off for these calls is given here.

The term EC50 denotes the concentration at which the effect is half-maximal.

For assay [1], the target named is von Hippel-Lindau disease tumor suppressor/Nuclear receptor coactivator 4 (Homo sapiens, UniProt P40337+Q13772). Briefly: PROTAC activity at NCOA4/VHL in human HeLa cells assessed as induction of NCOA4 degradation measured for 24 hrs by Western blot analysis. The assay is classed as cell-based. On the technique in general: In western blotting, separated proteins are transferred to a membrane and probed.

Assay [2] addresses von Hippel-Lindau disease tumor suppressor/Nuclear receptor coactivator 4 (Mus musculus, UniProt P40338+Q5U4H9). Briefly: PROTAC activity at NCOA4/VHL in mouse AML12 cells assessed as reduction in intracellular NCOA4 level incubated for 24 hrs by Western blot analysis. The assay is classed as cell-based.
Assay [3] relates to AML12. Briefly: Upregulation of FTH1 level in mouse AML12 cells incubated for 24 hrs by Western blot analysis. The assay is classed as functional, cell-based. As to conditions: dose <= 10.0 µM.
Assay [4] concerns AML12. The assay can be described thus: Effect on FTL mRNA expression in mouse AML12 cells at 0.12 to 10 uM measured for 36 hrs by RT-qPCR analysis. It is filed as functional, cell-based. As to conditions: dose 0.12-10 µM.
Assay [5] has as its system AML12. Briefly: Downregulation of Free Fe2+ level in mouse AML12 cells by FerroOrange dye based laser scanning confocal microscopic analysis. The assay is classed as functional, cell-based.
Assay [6] deals with AML12. Briefly: Downregulation of lipid hydroperoxide level in mouse AML12 cells at 200 nM measured for 36 hrs. It is filed as functional, cell-based.
In assay [7] the test system is AML12. The assay can be described thus: Protection against Brequinal-induced ferroptosis in mouse AML12 cells assessed as increase in cell viability at 200 nM measured for 48 hrs by cell counting-lite 2.0 analysis. It is filed as functional, cell-based.
Assay [8] concerns AML12. The assay can be described thus: Protection against RSL3-induced ferroptosis in mouse AML12 cells assessed as attenuation of Fe2+ level by fluorescence imaging analysis. The assay is classed as functional, cell-based.
In assay [9] the test system is AML12. Briefly: Protection against RSL3-induced ferroptosis in mouse AML12 cells assessed as reduction in lipid peroxidation level at 200 nM measured for 48 hrs. The assay is classed as functional, cell-based.
Assay [10] concerns AML12. The assay can be described thus: Protection against FINO2-induced ferroptosis in mouse AML12 cells assessed as reduction in lipid peroxidation level at 200 nM measured for 48 hrs. The assay is classed as functional, cell-based.
In assay [11] the test system is AML12. Briefly: Protection against CCl4-induced ferroptosis in mouse AML12 cells assessed as reduction in Fe2+ level at 200 to 1000 nM FerroOrange dye based fluorescence analysis. It is filed as functional, cell-based. As to conditions: dose 200-1000 nM.
For assay [12], the system named is AML12. Briefly: Protection against CCl4-induced ferroptosis in mouse AML12 cells assessed as reduction in ROS production at 200 to 1000 nM measured for 36 hrs. The assay is classed as functional, cell-based. As to conditions: dose 200-1000 nM.
Assay [13] has as its system AML12. The assay can be described thus: Protection against CCl4-induced ferroptosis in mouse AML12 cells assessed as reduction in MDA content at 200 to 1000 nM measured for 36 hrs. It is filed as functional, cell-based. To be noted: dose 200-1000 nM.
For assay [14], the system named is AML12. The assay can be described thus: Protection against CCl4-induced ferroptosis in mouse AML12 cells assessed as reduction in ptgs2 mRNA level at 200 to 1000 nM measured for 36 hrs by qRT-PCR analysis. It is filed as functional, cell-based. As to conditions: dose 200-1000 nM. In general terms: Quantitative PCR measures a nucleic acid by following its amplification.

Assay [15] has as its system AML12. Briefly: Protection against CCl4-induced ferroptosis in mouse AML12 cells assessed as cell viability in presence of Ferrostatin-1. It is filed as functional, cell-based.
The test system of assay [16] is Mus musculus. The assay can be described thus: Inhibition of CCl4-induced ferroptosis in acute liver injury C57BL/6 mouse model assessed as reduction in ptgs2 mRNA level in liver at 10 to 30 mg/kg, ip pretreated with compound for 3 hrs followed by CCl4 induction and measured after 12 to 24 hrs. The assay is classed as functional, organism-based. To be noted: dose 10-30 mg/kg, time 15-27 hrs.

In assay [17] the test system is Mus musculus. Briefly: Inhibition of CCl4-induced ferroptosis in acute liver injury C57BL/6 mouse model assessed as restoration of liver color fading at 10 to 30 mg/kg, ip pretreated with compound for 3 hrs followed by CCl4 induction and measured after 12 to 24 hrs. The assay is classed as functional, organism-based. To be noted: dose 10-30 mg/kg, time 15-27 hrs.

Assay [18] relates to Mus musculus. Briefly: Inhibition of CCl4-induced ferroptosis in acute liver injury C57BL/6 mouse model assessed as reduction in inflammation at 10 to 30 mg/kg, ip pretreated with compound for 3 hrs followed by CCl4 induction and measured after 12 to 24 hrs by H and E staining based analysis. To be noted: dose 10-30 mg/kg, time 15-27 hrs. The assay is classed as functional, organism-based.

Assay [19] relates to Mus musculus. The assay can be described thus: Inhibition of CCl4-induced ferroptosis in acute liver injury C57BL/6 mouse model assessed as inhibition of AST level at 10 to 30 mg/kg, ip pretreated with compound for 3 hrs followed by CCl4 induction and measured after 12 to 24 hrs. It is filed as functional, organism-based. As to conditions: dose 10-30 mg/kg, time 15-27 hrs.

Assay [20] deals with Mus musculus. Briefly: Inhibition of CCl4-induced ferroptosis in acute liver injury C57BL/6 mouse model assessed as reduction in IL-1beta level in serum at 10 to 30 mg/kg, ip pretreated with compound for 3 hrs followed by CCl4 induction and measured after 12 to 24 hrs by ELISA analysis. As to conditions: dose 10-30 mg/kg, time 15-27 hrs. The assay is classed as functional, organism-based. (ELISA stands for enzyme-linked immunosorbent assay.)

Assay [21] relates to Mus musculus. The assay can be described thus: Inhibition of CCl4-induced ferroptosis in acute liver injury C57BL/6 mouse model assessed as decrease in IL-6 expression in liver at 10 to 30 mg/kg, ip pretreated with compound for 3 hrs followed by CCl4 induction and measured after 12 to 24 hrs by q-PCR analysis. It is filed as functional, organism-based. To be noted: dose 10-30 mg/kg, time 15-27 hrs.

In assay [22] the test system is Mus musculus. Briefly: Inhibition of CCl4-induced ferroptosis in acute liver injury C57BL/6 mouse model assessed as decrease in TNF-alpha expression in liver at 10 to 30 mg/kg, ip pretreated with compound for 3 hrs followed by CCl4 induction and measured after 12 to 24 hrs by q-PCR analysis. The assay is classed as functional, organism-based. To be noted: dose 10-30 mg/kg, time 15-27 hrs.

Sequence of von Hippel-Lindau disease tumor suppressor/Nuclear receptor coactivator 4 (Homo sapiens, UniProt P40337+Q13772) (P40337 whole entry): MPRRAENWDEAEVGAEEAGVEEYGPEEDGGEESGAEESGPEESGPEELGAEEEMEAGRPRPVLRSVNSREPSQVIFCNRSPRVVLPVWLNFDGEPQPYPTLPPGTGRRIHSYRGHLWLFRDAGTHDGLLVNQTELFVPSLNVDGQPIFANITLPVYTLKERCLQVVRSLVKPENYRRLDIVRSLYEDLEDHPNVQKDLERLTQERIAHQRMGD
Sequence of von Hippel-Lindau disease tumor suppressor/Nuclear receptor coactivator 4 (Homo sapiens, UniProt P40337+Q13772) (Q13772 whole entry): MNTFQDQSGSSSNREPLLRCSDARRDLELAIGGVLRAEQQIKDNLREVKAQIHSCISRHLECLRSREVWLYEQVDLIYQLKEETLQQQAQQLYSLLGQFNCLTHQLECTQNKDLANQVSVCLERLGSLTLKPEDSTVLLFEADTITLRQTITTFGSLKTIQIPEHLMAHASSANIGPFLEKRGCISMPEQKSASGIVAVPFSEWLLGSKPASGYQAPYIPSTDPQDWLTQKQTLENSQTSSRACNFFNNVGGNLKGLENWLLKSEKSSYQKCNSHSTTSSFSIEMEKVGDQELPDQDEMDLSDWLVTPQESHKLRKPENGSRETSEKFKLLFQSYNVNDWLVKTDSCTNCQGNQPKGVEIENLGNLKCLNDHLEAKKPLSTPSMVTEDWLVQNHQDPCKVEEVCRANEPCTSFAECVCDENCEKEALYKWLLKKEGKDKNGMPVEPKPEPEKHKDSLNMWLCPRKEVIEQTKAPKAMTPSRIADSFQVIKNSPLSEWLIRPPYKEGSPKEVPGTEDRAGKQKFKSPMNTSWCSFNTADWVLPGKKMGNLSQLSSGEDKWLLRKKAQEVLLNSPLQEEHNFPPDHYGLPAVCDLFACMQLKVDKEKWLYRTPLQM
Sequence of von Hippel-Lindau disease tumor suppressor/Nuclear receptor coactivator 4 (Mus musculus, UniProt P40338+Q5U4H9) (P40338 whole entry): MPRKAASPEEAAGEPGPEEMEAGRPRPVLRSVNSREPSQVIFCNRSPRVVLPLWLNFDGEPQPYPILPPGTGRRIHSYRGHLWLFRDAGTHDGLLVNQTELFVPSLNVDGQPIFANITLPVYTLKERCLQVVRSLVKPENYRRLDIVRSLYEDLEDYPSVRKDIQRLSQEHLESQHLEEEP
Sequence of von Hippel-Lindau disease tumor suppressor/Nuclear receptor coactivator 4 (Mus musculus, UniProt P40338+Q5U4H9) (Q5U4H9 whole entry): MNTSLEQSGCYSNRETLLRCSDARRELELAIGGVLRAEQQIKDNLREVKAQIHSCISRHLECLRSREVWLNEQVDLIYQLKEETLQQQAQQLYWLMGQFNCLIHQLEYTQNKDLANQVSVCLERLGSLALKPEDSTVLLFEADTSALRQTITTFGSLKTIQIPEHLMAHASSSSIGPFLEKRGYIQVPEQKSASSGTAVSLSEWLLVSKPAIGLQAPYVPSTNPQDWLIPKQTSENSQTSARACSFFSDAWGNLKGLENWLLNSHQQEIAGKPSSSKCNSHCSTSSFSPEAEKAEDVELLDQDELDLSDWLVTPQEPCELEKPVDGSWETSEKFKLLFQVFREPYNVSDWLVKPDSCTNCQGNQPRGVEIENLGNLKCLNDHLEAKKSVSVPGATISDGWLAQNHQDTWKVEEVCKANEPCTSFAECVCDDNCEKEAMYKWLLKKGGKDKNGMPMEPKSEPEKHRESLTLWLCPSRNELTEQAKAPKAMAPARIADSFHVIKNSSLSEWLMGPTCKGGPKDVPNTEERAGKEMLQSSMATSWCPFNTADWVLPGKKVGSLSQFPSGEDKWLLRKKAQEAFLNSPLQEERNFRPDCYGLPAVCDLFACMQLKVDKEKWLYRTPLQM

Consider `Cc1ncsc1-c1ccc(CNC(=O)[C@@H]2C[C@@H](O)CN2C(=O)[C@H](NC(=O)CCCC(=O)NCCOCCOCCOCCOc2ccc3c(c2)CCN(c2cccc(-c4nc5ccc(N6CCN(C)CC6)cc5[nH]4)c2)C3)C(C)(C)C)cc1`, for which the values for the DC50 in assay [1] and in [2] were 3 nM and 202 nM, respectively. In addition, the Activity result in assay [3] is “Dose-Dependent Effect”. In addition, in [4], the outcome was inactive. In addition, the outcome in [5], in assay [6], in assay [7], in assay [8], in assay [9] and in [10] was Active. For the same compound, the outcome in assay [11], in assay [12], in assay [13] and in assay [14] was Active. Also, in assay [15], the concentration giving a half-maximal response (EC50) amounted to 9 nM. For the same compound, the inhibition entry in [16], in assay [17], in assay [18], in [19], in assay [20] and in assay [21] was “Active” each time. In addition, the inhibition entry in [22] is “Active”.
